The values below come from PubChem BioAssay (NCI).

Among the test systems are SNB-75 CNS; PC-3 prostate; SK-MEL-28 melanoma; HCT-116 colon; A549 NSCLC; 786-0 renal; K-562 leukemia; NCI/ADR-RES ovarian; UO-31 renal; SF-295 CNS.
What all share (experiment): NCI-60 cell line screen, 48 h

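Interpolation was linear, between the two tested concentrations surrounding the appropriate level; five concentrations were tested over 48 hours in 96-well plates. GI50 marks 50% less growth. At the TGI there is no net growth.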

Take `COc1cc(CSc2nc3ccc(C)cc3c(=O)n2Cc2ccccc2)cc(OC)c1OC`: the GI50 in the test with SNB-75 CNS was 0.804 µM; in the test on PC-3 prostate it was 2.66 µM; in the test with SK-MEL-28 melanoma, 2.99 µM; in the test with HCT-116 colon, 2.08 µM; in the test with A549 NSCLC, 1.72 µM; with 786-0 renal it was 7.49 µM. The GI50 in the test on K-562 leukemia is 0.624 µM; with NCI/ADR-RES ovarian, 1.51 µM; with UO-31 renal, 3.05 µM. The TGI with SNB-75 CNS was 4.21 µM; in the test with PC-3 prostate, > 100 µM; in the test with SK-MEL-28 melanoma, 96.8 µM; with HCT-116 colon, 48.9 µM; with A549 NSCLC it was > 100 µM; in the test on 786-0 renal, 65.6 µM. For the same compound, the figures for the TGI in the test with K-562 leukemia, in the test on NCI/ADR-RES ovarian and with UO-31 renal were > 100 µM, 14.6 µM and > 100 µM, respectively.
Consider `C=CC1CC12C(=O)C1OC2(C)C2C(=O)c3c(ccc4c3ccc3ccccc34)C(=O)C12` (configuration not stated), for which the GI50 with SNB-75 CNS was > 100 µM; in the test with PC-3 prostate, 35.6 µM; in the test with SK-MEL-28 melanoma it was 65.3 µM; in the test with HCT-116 colon it was 52.6 µM; in the test with A549 NSCLC, 95.2 µM; in the test on 786-0 renal, 38.8 µM. Further, the GI50 was 26.1 µM in the test with K-562 leukemia, 74.9 µM with NCI/ADR-RES ovarian and > 100 µM in the test on UO-31 renal. The TGI with SNB-75 CNS, in the test on PC-3 prostate, in the test with SK-MEL-28 melanoma, with HCT-116 colon, in the test on A549 NSCLC and in the test with 786-0 renal was > 100 µM in each case. Also, the TGI in the test on K-562 leukemia, in the test on NCI/ADR-RES ovarian and with UO-31 renal was > 100 µM each time.
`Nc1ccc2c(c1)C(=O)c1c(F)cccc1-2`: the TGI with SNB-75 CNS, in the test with PC-3 prostate, with SF-295 CNS, in the test with SK-MEL-28 melanoma, with HCT-116 colon and in the test on A549 NSCLC was > 100 µM in each case. For the same compound, the TGI in the test on 786-0 renal, in the test with NCI/ADR-RES ovarian and in the test with UO-31 renal was > 100 µM throughout.
Turning to `COC(CCP(=O)(c1ccccc1)c1ccccc1)(C(=O)c1ccccc1)c1ccccc1` (configuration not stated), the GI50 with SNB-75 CNS is 5.76 µM; in the test on PC-3 prostate it was 2.15 µM; in the test with SF-295 CNS, 0.135 µM; in the test with SK-MEL-28 melanoma it was 6.95 µM; in the test with HCT-116 colon, 4.48 µM; with A549 NSCLC it was 3.77 µM. Further, the GI50 was 10.3 µM with 786-0 renal, 4.93 µM in the test with NCI/ADR-RES ovarian and 2.46 µM in the test on UO-31 renal. Besides, the TGI in the test with SNB-75 CNS turned out to be 22 µM; in the test on PC-3 prostate, 12.3 µM; in the test with SF-295 CNS it was 1.49 µM; in the test with SK-MEL-28 melanoma it was 19.9 µM; with HCT-116 colon it was 16.5 µM; in the test with A549 NSCLC it was 16.5 µM. Besides, the values for the TGI in the test on 786-0 renal, in the test on NCI/ADR-RES ovarian and with UO-31 renal were 28 µM, 20.9 µM and 16.9 µM, respectively.
Take `COc1ccc(C(O)CNC(=O)c2ccccc2)cc1` (configuration not stated): the TGI in the test with SNB-75 CNS, in the test with PC-3 prostate, with SF-295 CNS, in the test on SK-MEL-28 melanoma, in the test with HCT-116 colon and with A549 NSCLC was > 100 µM throughout. Moreover, the TGI in the test with 786-0 renal, in the test with K-562 leukemia and in the test on NCI/ADR-RES ovarian was > 100 µM in each case.
As to `CN1CCN(c2ccc3c4c(cccc24)C(=O)N(CCN2CCN(CCCN4CCN(CCN5C(=O)c6cccc7c(N8CCN(C)CC8)ccc(c67)C5=O)CC4)CC2)C3=O)CC1`, the GI50 with SNB-75 CNS is 7 µM; in the test on PC-3 prostate it was 5.14 µM; with SF-295 CNS, 5.75 µM; in the test with SK-MEL-28 melanoma, 9.37 µM; in the test on HCT-116 colon it was 1.23 µM; with A549 NSCLC, 7.37 µM. In addition, the GI50 with 786-0 renal is 1.79 µM; with NCI/ADR-RES ovarian it was 4.2 µM. Further, the TGI is 14.1 µM with SNB-75 CNS; 11.6 µM in the test with PC-3 prostate; 13.7 µM in the test on SF-295 CNS; 17.1 µM in the test with SK-MEL-28 melanoma; 5.79 µM in the test on HCT-116 colon; 15 µM in the test on A549 NSCLC. Also, the TGI in the test with 786-0 renal came out at 6.87 µM; in the test on NCI/ADR-RES ovarian, 10.3 µM.
In the case of `COc1cccc(/C=N\Nc2ccc([N+](=O)[O-])cn2)c1O`, the GI50 with SNB-75 CNS is 8.78 µM; with PC-3 prostate it was 14 µM; in the test with SK-MEL-28 melanoma, 19.6 µM; in the test with HCT-116 colon it was 3.04 µM; in the test with A549 NSCLC it was 4.26 µM; in the test with 786-0 renal, 3.53 µM. For the same compound, the values for the GI50 with K-562 leukemia, with NCI/ADR-RES ovarian and with UO-31 renal were 3.12 µM, 2.43 µM and 1.74 µM, respectively. Moreover, the TGI with SNB-75 CNS is 57.2 µM; in the test on PC-3 prostate, > 100 µM; with SK-MEL-28 melanoma, > 100 µM; in the test on HCT-116 colon, 15.2 µM; with A549 NSCLC it was 46.3 µM; in the test with 786-0 renal, 28.9 µM. Moreover, the TGI in the test with K-562 leukemia is > 100 µM; with NCI/ADR-RES ovarian it was 28 µM; in the test with UO-31 renal, 7.24 µM.
As to `O=C1/C(=C/c2ccccc2Cl)N=C(c2ccccc2)N1Cc1ccco1`, the GI50 in the test on SNB-75 CNS was 50.3 µM; in the test on PC-3 prostate, 39 µM; in the test on SK-MEL-28 melanoma it was 44.7 µM; in the test with HCT-116 colon it was 18.5 µM; with A549 NSCLC it was 27.7 µM; in the test on 786-0 renal, 34.7 µM. Further, the values for the GI50 in the test on K-562 leukemia, in the test with NCI/ADR-RES ovarian and in the test with UO-31 renal were 24.2 µM, > 100 µM and 55.4 µM, respectively. Besides, the TGI in the test on SNB-75 CNS, in the test with PC-3 prostate, in the test on SK-MEL-28 melanoma, in the test on HCT-116 colon, in the test with A549 NSCLC and in the test on 786-0 renal was > 100 µM throughout. The TGI in the test on K-562 leukemia, with NCI/ADR-RES ovarian and with UO-31 renal was > 100 µM in each case.
With `ClCCN(CCCl)c1ccc(-n2cnc3c(Cl)ncnc32)cc1`, the GI50 is 2.06 µM in the test with SNB-75 CNS; 4.38 µM with PC-3 prostate; 1.94 µM in the test on SK-MEL-28 melanoma; 1.82 µM in the test on HCT-116 colon; 12.5 µM in the test on A549 NSCLC; 14 µM in the test on 786-0 renal. Further, the GI50 is 3.24 µM with K-562 leukemia, 4.15 µM in the test with NCI/ADR-RES ovarian and 1.7 µM in the test with UO-31 renal. The TGI in the test with SNB-75 CNS worked out at 7.37 µM; with PC-3 prostate, 18.2 µM; in the test on SK-MEL-28 melanoma it was 3.64 µM; in the test on HCT-116 colon, 3.33 µM; in the test on A549 NSCLC, 29.7 µM; in the test with 786-0 renal, 28.4 µM. The TGI is 9.92 µM in the test on K-562 leukemia, 20.3 µM with NCI/ADR-RES ovarian and 3.34 µM in the test with UO-31 renal.
